What was measured:
human NMT1 (HsNMT1) = biological target: T1, human NMT1 (HsNMT1) (Homo sapiens, UniProt P30419); experiment: HsNMT1 IC50, fluorescence-based assay detecting CoA with CPM; assay type: biochemical
T1 sequence (P30419 1-496): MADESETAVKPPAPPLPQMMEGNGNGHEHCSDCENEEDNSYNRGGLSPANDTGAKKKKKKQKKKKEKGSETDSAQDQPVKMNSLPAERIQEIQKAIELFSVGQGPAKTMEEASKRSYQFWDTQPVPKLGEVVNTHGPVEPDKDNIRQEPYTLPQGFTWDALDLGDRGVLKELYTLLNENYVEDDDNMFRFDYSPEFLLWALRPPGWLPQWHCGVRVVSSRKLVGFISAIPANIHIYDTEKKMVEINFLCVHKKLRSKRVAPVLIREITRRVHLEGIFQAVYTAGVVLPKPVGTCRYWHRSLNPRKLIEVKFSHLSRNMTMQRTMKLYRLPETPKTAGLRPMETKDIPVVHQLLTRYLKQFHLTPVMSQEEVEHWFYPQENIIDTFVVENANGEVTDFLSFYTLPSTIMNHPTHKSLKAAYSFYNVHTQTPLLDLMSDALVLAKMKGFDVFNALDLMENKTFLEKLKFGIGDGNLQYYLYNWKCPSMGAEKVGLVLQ
Experimental: The IC50 values for human NMT1 (HsNMT1) of four Example compounds of the invention described above (Examples 1-4) and six comparative examples (Comparative Examples 1, 2, 3, 4, 5 and 6) were measured using a sensitive fluorescence-based assay based on detection of CoA by 7-diethylamino-3-(4-maleimido-phenyl)-4-methylcoumarin, as described in Goncalves, V., et al., Analytical Biochemistry, 2012, 421, 342-344 and Goncalves, V., et al., J. Med. Chem, 2012, 55, 3578.

Mouse half life in vivo = conditions: plasma; mouse oral half-life; male CD-1 mice, 10 mg/kg po; read-out: Rat or mouse t ½ (mouse) (converted)
Experimental: Example Compound 1, and Comparative Examples 2 and 3 were tested for metabolic stability in male Sprague-Dawley rats. Comparative Example 5 was tested for metabolic stability in male CD-1 mice. Compounds having good metabolic stability in rats or mice are expected to be especially useful as agents for preventing and/or treating cancer, by having a long half-life in human patients.
Same as rat protocol except that CD-1 mice were dosed at 5 mg/kg iv and 10 mg/kg po.

MRC5 cells = experiment: Metabolic activity assay (MTS assay), MRC5; assay type: cell-based, human; conditions: Homo sapiens, MRC5, 72 h
Experimental: Example NMT inhibitors of the present invention were tested for activity in an in vitro metabolic activity assay using the human cell line MRC5. Comparative Examples 1, 2, 3, 4, 5 and 6 were also tested in the same metabolic activity assay. Compounds having activity in inhibiting metabolic activity in the assay are expected to be useful as agents for preventing and/or treating cancer, by virtue of being inhibitors of human NMT1 and/or NMT2.
MRC5 cells (obtained from Dr David Mann's group, Imperial College; cell type: fibroblasts cells which derive from normal lung tissue) were grown in DMEM media (supplemented with 10% FBS) and were seeded in a 96-well plate, 24 h prior to treatment. Cell suspensions were prepared by adjusting the cell density to the appropriate concentration (as stated in the Table 1 below) and 50 μL of the cell suspension was transferred to wells B-G in columns 2-11 of a 96-well plate.
100 μL of growth media (DMEM media) containing 0.2% DMSO was added to wells B-G in columns 2 and 11 as positive controls, and 100 μl of growth media containing Puromycin (3 μg/mL; final concentration in the plate 2 μg/mL) was added to wells B-G in column 3 as a negative control. Seven concentrations of NMT inhibitor stock solution were prepared for each Example (Example 1 and 2) and each Comparative Example (Comparative Examples 1, 2, 3, 4, 5 and 6) tested (same final percentage of DMSO, dilution factor=3 starting from 15 μM or 150 μM). 100 μL of inhibitor stock solution was added to wells B-G in columns 4-10 of a 96-well plate (final concentration of Example compound or Comparative Example compound in the plate starting from 10 μM or 100 μM; total volume in each well was 150 μL). The plate was incubated at 37° C. with 5% CO2 level.
After 72 h, 20 μL MTS reagent (Promega, prepared according to the supplier protocol) was added to each well of the 96-well plate. The plate was incubated at 37° C. for 2 h and the absorbance per well was measured at 490 nm with an EnVision plate reader. The average absorbance value of the negative control (Puromycin-treated cells) was subtracted from each value and the metabolic activity was calculated as a percentage relative to the positive control (DMSO-treated cells). EC50 values were calculated using GraphPad.

[1] = Human liver microsomes half life; assay type: in vitro ADME; conditions: pH 7.4, read-out: Human liver microsomes t ½
Experimental: Example Compound 1 was tested for metabolic stability in an assay using human liver microsomes. Comparative Examples 2, 3, 4, 5 and 6 were also tested in the same assay. Compounds having good metabolic stability in the assay are expected to be especially useful as agents for preventing and/or treating cancer, by having a long half-life in human patients
Frozen human liver microsomes obtained from Corning, USA (cat #452117) were thawed and diluted with 100 mM of pH 7.4 phosphate buffer to give a 1 mg/ml solution. An NADPH regeneration system (NRS) was prepared as a solution containing 13 mM NADP, 33 mM glucose-6-phosphate, 33 mM MgCl2 and 4U/mL glucose-6-phosphate dehydrogenase in 100 mM of pH7.4 phosphate buffer. The test compound (4 mM) in DMSO was diluted with acetonitrile to provide a 100 μM sub-stock then further diluted with 100 mM of pH7.4 phosphate buffer to provide a 2 μM working solution. The liver microsome solution and NRS were incubated at 37° C. before use. To each well of the test plate was dispensed 60 μL of buffer, 50 μL of test compound solution and 10 μL of NRS. A reaction was initiated by addition of 40 μL of liver microsome solution. Wells were incubated for an appropriate time (0, 5, 10, 20, 30 and 60 min) then quenched with 300 μL of acetonitrile containing reference standards atenolol, propranolol, diclofenac, verapamil). All plates were centrifuged at 3500 rpm for 20 min at 15° C. to pellet the debris. 110 μL supernatant was diluted 110 μL water and quantitated using LC-MS/MS.
The results were used to calculate the % Remaining of the test compound at time point t=100×˜[(AUC at time point t)/(AUC at T=0)]. A linear regression curve was fitted to a plot of natural logarithm (In) of AUC against time. The T-half (min)=0.693/slope.

Structure (SMILES): Cc1nn(C)c(C)c1CCOc1cc(F)ccc1-c1ccc2c(c1)c(CN(C)C)nn2C [Comparative Example 5, 1-(5-(4-fluoro-2-(2-(1,3,5-trimethyl-1H-pyrazol-4-yl)ethoxy)phenyl)-1-methyl-1H-indazol-3-yl)-N,N-dimethylmethanamine]
- IC50 (human NMT1 (HsNMT1)): 0.013 µM
- half-life (Mouse half life in vivo): 42 min
- EC50 (MRC5 cells): 27 µM
- half-life at 0.625 µM [1]: 7 min

— US12304909B2, “Compounds and their use in therapy” (IMPERIAL COLLEGE INNOVATIONS LIMITED, priority 2018, dated 2025)
